Read-outs that look alike come from different tables or passages of the source.
Tests used:
H1666 NSCLC cell line = test: Cellular growth inhibition (CellTiter Glo viability assay); format: cell-based; conditions: Homo sapiens
H2172 NSCLC cell line = test: as above; format: cell-based; conditions: Homo sapiens
HCC78 NSCLC cell line = test: as above; format: cell-based; conditions: Homo sapiens
H157 NSCLC cell line = test: as above; format: cell-based; conditions: Homo sapiens
PC9 NSCLC cell line = test: as above; format: cell-based; conditions: Homo sapiens
H460 NSCLC cell line = test: as above; format: cell-based; conditions: Homo sapiens
H322M NSCLC cell line = test: as above; format: cell-based; conditions: Homo sapiens, NCI-H322M
H2009 NSCLC cell line = test: as above; format: cell-based; conditions: Homo sapiens
H2030 NSCLC cell line = test: as above; format: cell-based; conditions: Homo sapiens
HCC2279 NSCLC cell line = test: as above; format: cell-based; conditions: Homo sapiens
HCC4006 NSCLC cell line = test: as above; format: cell-based; conditions: Homo sapiens
H1648 NSCLC cell line = test: as above; format: cell-based; conditions: Homo sapiens
HCC366 NSCLC cell line = test: as above; format: cell-based; conditions: Homo sapiens
LouNH91 NSCLC cell line = test: as above; format: cell-based; conditions: Homo sapiens
Calu6 NSCLC cell line = test: as above; format: cell-based; conditions: Homo sapiens
H520 NSCLC cell line = test: as above; format: cell-based; conditions: Homo sapiens
H2077 NSCLC cell line = test: as above; format: cell-based; conditions: Homo sapiens
H1395 NSCLC cell line = test: as above; format: cell-based; conditions: Homo sapiens
HCC827 NSCLC cell line = test: cells; conditions: Homo sapiens
[1] = NCI-H1666, H1666, 96 hours of treatment, read-out: GI50
[2] = NCI-H2172, H2172, 96 hours of treatment, read-out: GI50
[3] = HCC78, 96 hours of treatment, read-out: GI50
[4] = NCI-H157, H157, 96 hours of treatment, read-out: GI50
[5] = 96 h, read-out: GI50 this paper
[6] = PC9, 96 hours of treatment, read-out: GI50
[7] = NCI-H460, H460, 96 hours of treatment, read-out: GI50
[8] = H322M, 96 hours of treatment, read-out: GI50
[9] = NCI-H2009, H2009, 96 hours of treatment, read-out: GI50
[10] = NCI-H2030, H2030, 96 hours of treatment, read-out: GI50
[11] = HCC2279, 96 hours of treatment, read-out: GI50
[12] = HCC4006, 96 hours of treatment, read-out: GI50
[13] = NCI-H1648, H1648, 96 hours of treatment, read-out: GI50
[14] = HCC366, 96 hours of treatment, read-out: GI50
[15] = LOU-NH91, LouNH91, 96 hours of treatment, read-out: GI50
[16] = Calu-6, 96 hours of treatment, read-out: GI50
[17] = NCI-H520, H520, 96 hours of treatment, read-out: GI50
[18] = H2077, 96 hours of treatment, read-out: GI50
[19] = NCI-H1395, H1395, 96 hours of treatment, read-out: GI50

## Cc1nc(Nc2ncc(C(=O)Nc3c(C)cccc3Cl)s2)cc(N2CCN(CCO)CC2)n1 [dasatinib, N-(2-chloro-6-methylphenyl)-2-[[6-[4-(2-hydroxyethyl)piperazin-1-yl]-2-methylpyrimidin-4-yl]amino]-1,3-thiazole-5-carboxamide]
H1666 NSCLC cell line; NCI-H1666, 96 h, read-out: GI50 this paper
  GI50: 0.076 µM
H1666 NSCLC cell line; NCI-H1666, read-out: Sensitivity Dasatinib
  IC50: < 1 µM
H1666 NSCLC cell line; [1]
  GI50: 0.076 µM
H2172 NSCLC cell line; NCI-H2172, 96 h, read-out: GI50 this paper
  GI50: 5.85 µM
H2172 NSCLC cell line; NCI-H2172, read-out: Sensitivity Dasatinib
  IC50: > 1 µM
H2172 NSCLC cell line; [2]
  GI50: 5.85 µM
HCC78 NSCLC cell line; HCC78, 96 h, read-out: GI50 this paper
  GI50: 17.1 µM
HCC78 NSCLC cell line; HCC78, read-out: Sensitivity Dasatinib
  IC50: > 1 µM
HCC78 NSCLC cell line; [3]
  GI50: 17.1 µM
H157 NSCLC cell line; NCI-H157, 96 h, read-out: GI50 this paper
  GI50: 2.63 µM
H157 NSCLC cell line; NCI-H157, read-out: Sensitivity Dasatinib
  IC50: > 1 µM
H157 NSCLC cell line; [4]
  GI50: 2.63 µM
PC9 NSCLC cell line; [5]
  GI50: 0.02 µM
PC9 NSCLC cell line; PC-9, read-out: Sensitivity Dasatinib, PC9
  IC50: < 1 µM
PC9 NSCLC cell line; [6]
  GI50: 0.02 µM
H460 NSCLC cell line; NCI-H460, 96 h, read-out: GI50 this paper
  GI50: 3.9 µM
H460 NSCLC cell line; NCI-H460, read-out: Sensitivity Dasatinib
  IC50: > 1 µM
H460 NSCLC cell line; [7]
  GI50: 3.9 µM
H322M NSCLC cell line; [5]
  GI50: 0.311 µM
H322M NSCLC cell line; read-out: Sensitivity Dasatinib
  IC50: < 1 µM
H322M NSCLC cell line; [8]
  GI50: 0.311 µM
H2009 NSCLC cell line; NCI-H2009, 96 h, read-out: GI50 this paper
  GI50: 0.085 µM
H2009 NSCLC cell line; NCI-H2009, read-out: Sensitivity Dasatinib
  IC50: < 1 µM
H2009 NSCLC cell line; [9]
  GI50: 0.085 µM
H2030 NSCLC cell line; NCI-H2030, 96 h, read-out: GI50 this paper
  GI50: 0.022 µM
H2030 NSCLC cell line; NCI-H2030, read-out: Sensitivity Dasatinib
  IC50: < 1 µM
H2030 NSCLC cell line; [10]
  GI50: 0.022 µM
HCC2279 NSCLC cell line; [5]
  GI50: 0.045 µM
HCC2279 NSCLC cell line; read-out: Sensitivity Dasatinib, HCC2279
  IC50: < 1 µM
HCC2279 NSCLC cell line; [11]
  GI50: 0.045 µM
HCC4006 NSCLC cell line; HCC4006, 96 h, read-out: GI50 this paper
  GI50: 0.95 µM
HCC4006 NSCLC cell line; HCC4006, read-out: Sensitivity Dasatinib
  IC50: < 1 µM
HCC4006 NSCLC cell line; [12]
  GI50: 0.95 µM
H1648 NSCLC cell line; NCI-H1648, 96 h, read-out: GI50 this paper
  GI50: 0.079 µM
H1648 NSCLC cell line; NCI-H1648, read-out: Sensitivity Dasatinib
  IC50: < 1 µM
H1648 NSCLC cell line; [13]
  GI50: 0.079 µM
HCC366 NSCLC cell line; HCC366, 96 h, read-out: GI50 this paper
  GI50: 0.017 µM
HCC366 NSCLC cell line; HCC366, read-out: Sensitivity Dasatinib
  IC50: < 1 µM
HCC366 NSCLC cell line; [14]
  GI50: 0.017 µM
LouNH91 NSCLC cell line; LOU-NH91, 96 h, read-out: GI50 this paper
  GI50: 0.068 µM
LouNH91 NSCLC cell line; LOU-NH91, read-out: Sensitivity Dasatinib, LouNH91
  IC50: < 1 µM
LouNH91 NSCLC cell line; [15]
  GI50: 0.068 µM
Calu6 NSCLC cell line; Calu-6, 96 h, read-out: GI50 this paper
  GI50: 2.8 µM
Calu6 NSCLC cell line; Calu-6, read-out: Sensitivity Dasatinib
  IC50: > 1 µM
Calu6 NSCLC cell line; [16]
  GI50: 2.8 µM
H520 NSCLC cell line; NCI-H520, 96 h, read-out: GI50 this paper
  GI50: 1.43 µM
H520 NSCLC cell line; NCI-H520, read-out: Sensitivity Dasatinib
  IC50: > 1 µM
H520 NSCLC cell line; [17]
  GI50: 1.43 µM
H2077 NSCLC cell line; [5]
  GI50: 4.75 µM
H2077 NSCLC cell line; read-out: Sensitivity Dasatinib, H2077
  IC50: > 1 µM
H2077 NSCLC cell line; [18]
  GI50: 4.75 µM
H1395 NSCLC cell line; NCI-H1395, 96 h, read-out: GI50 this paper
  GI50: 4.7 µM
H1395 NSCLC cell line; NCI-H1395, read-out: Sensitivity Dasatinib
  IC50: > 1 µM
H1395 NSCLC cell line; [19]
  GI50: 4.7 µM

## CN1CCN(CCOc2cc(OC3CCOCC3)c3c(Nc4c(Cl)ccc5c4OCO5)ncnc3c2)CC1 [saracatinib, N-(5-Chloro-1,3-benzodioxol-4-yl)-7-[2-(4-methyl-1-piperazinyl)ethoxy]-5-[(tetrahydro-2H-pyran-4-yl)oxy]-4-quinazolinamine]
H1666 NSCLC cell line; NCI-H1666, read-out: Sensitivity Saracatinib
  IC50: < 3.5 µM
H1666 NSCLC cell line; [1]
  GI50: 2.2 µM
H2172 NSCLC cell line; NCI-H2172, read-out: Sensitivity Saracatinib
  IC50: > 3.5 µM
H2172 NSCLC cell line; [2]
  GI50: 28.5 µM
HCC78 NSCLC cell line; HCC78, read-out: Sensitivity Saracatinib
  IC50: < 3.5 µM
HCC78 NSCLC cell line; [3]
  GI50: 0.267 µM
HCC827 NSCLC cell line; HCC827, 96 h
  GI50: 0.722 µM
HCC827 NSCLC cell line; HCC827, read-out: Sensitivity Saracatinib
  IC50: < 3.5 µM
H157 NSCLC cell line; NCI-H157, read-out: Sensitivity Saracatinib
  IC50: > 3.5 µM
H157 NSCLC cell line; [4]
  GI50: 13.9 µM
PC9 NSCLC cell line; PC-9, read-out: Sensitivity Saracatinib, PC9
  IC50: < 3.5 µM
PC9 NSCLC cell line; [6]
  GI50: 0.147 µM
H460 NSCLC cell line; NCI-H460, read-out: Sensitivity Saracatinib
  IC50: > 3.5 µM
H460 NSCLC cell line; [7]
  GI50: 12.1 µM
H322M NSCLC cell line; read-out: Sensitivity Saracatinib
  IC50: < 3.5 µM
H322M NSCLC cell line; [8]
  GI50: 0.876 µM
H2009 NSCLC cell line; NCI-H2009, read-out: Sensitivity Saracatinib
  IC50: > 3.5 µM
H2009 NSCLC cell line; [9]
  GI50: 4.31 µM
H2030 NSCLC cell line; NCI-H2030, read-out: Sensitivity Saracatinib
  IC50: < 3.5 µM
H2030 NSCLC cell line; [10]
  GI50: 0.443 µM
HCC2279 NSCLC cell line; read-out: Sensitivity Saracatinib, HCC2279
  IC50: < 3.5 µM
HCC2279 NSCLC cell line; [11]
  GI50: 0.66 µM
HCC4006 NSCLC cell line; HCC4006, read-out: Sensitivity Saracatinib
  IC50: < 3.5 µM
HCC4006 NSCLC cell line; [12]
  GI50: 0.132 µM
H1648 NSCLC cell line; NCI-H1648, read-out: Sensitivity Saracatinib
  IC50: < 3.5 µM
H1648 NSCLC cell line; [13]
  GI50: 1.51 µM
HCC366 NSCLC cell line; HCC366, read-out: Sensitivity Saracatinib
  IC50: < 3.5 µM
HCC366 NSCLC cell line; [14]
  GI50: 1.24 µM
LouNH91 NSCLC cell line; LOU-NH91, read-out: Sensitivity Saracatinib, LouNH91
  IC50: < 3.5 µM
LouNH91 NSCLC cell line; [15]
  GI50: 1.18 µM
Calu6 NSCLC cell line; Calu-6, read-out: Sensitivity Saracatinib
  IC50: > 3.5 µM
Calu6 NSCLC cell line; [16]
  GI50: 30 µM
H520 NSCLC cell line; NCI-H520, read-out: Sensitivity Saracatinib
  IC50: > 3.5 µM
H520 NSCLC cell line; [17]
  GI50: 4.56 µM
H2077 NSCLC cell line; read-out: Sensitivity Saracatinib, H2077
  IC50: > 3.5 µM
H2077 NSCLC cell line; [18]
  GI50: 14.8 µM
H1395 NSCLC cell line; NCI-H1395, read-out: Sensitivity Saracatinib
  IC50: > 3.5 µM
H1395 NSCLC cell line; [19]
  GI50: 31.7 µM

Source: patent US9328386B2, “Markers for susceptibility to an inhibitor of an Src-family kinase” (Evotec (München) GmbH, priority 2011, dated 2016)
